Experimental data taken from patent publication US9566351B2, “Molecular containers and methods of making and using same” (University of Maryland, College Park, priority 2010, dated 2017).
Like-named read-outs stand apart in the source and are kept apart here.

Key:
SK-OV-3 cells = settings: ABZ formulated in ethanol; cited from earlier work
[1] = Phase-solubility of pharmaceutical agents with Motor2 (1H NMR); settings: drug solubilized with Motor2; 20 mM sodium phosphate buffer (pH=7.4); phase diagram
glioblastoma multiforme = settings: daily oral doses (50 and 150 mg/kg) of ABZ tablets mixed with 50% sesame oil; cited from earlier work
[2] = test system: OVCAR-3 (human ovarian adenocarcinoma); settings: 150 mg/kg of ABZ 3 times a week for 4 weeks through IP; cited from earlier work
[3] = drug with Motor1; 20 mM sodium phosphate buffer (pH=7.4); phase diagram
[4] = mice; repeated oral dosing of 30-40 mg/kg/day for 4-90 days; cited from earlier work
[5] = test system: SKHEP-1 (human liver adenocarcinoma) xenografts; settings: ABZ in sesame oil; xenografts on the flank of mice; cited from earlier work
[6] = Swiss Webster, mouse, in vivo, iv, 3.2 mg/kg
in vivo [7] = settings: Swiss Webster, mouse, ip, plasma concentration
in vivo [8] = settings: Swiss Webster, mouse, iv, plasma concentration
[9] = Swiss Webster, mouse, in vivo

SMILES: CCCSc1ccc2nc(NC(=O)OC)[nH]c2c1 [Albendazole]
- IC50 (SK-OV-3 cells): 3.88 µM
- Solubility enhancement [1]: 149 fold
- mouse survival (glioblastoma multiforme): moderate improvements in mouse survival
- effect on malignant ascites [2]: suppression of malignant ascites
- Solubility enhancement [3]: 226 fold
- signs of toxicity [4]: no significant signs of toxicity
- daily oral dose required to see an antitumor effect [5]: 300 mg/kg
- tmax [6]: 4.98 min
- concentration at 15 min (in vivo [7]): 380 ng/mL
- concentration at 30 min (in vivo [7]): 292 ng/mL
- concentration at 2 h (in vivo [7]): 122 ng/mL
- concentration at 5 min (in vivo [8]): 1910 ng/mL
- concentration at 15 min (in vivo [8]): 606 ng/mL
- Absolute Bioavailability (%) [9]: 78%
- tmax ([9]; ip, 3.2 mg/kg): 4.98 min
